From patent US20100035867A1 (priority 2006, published 2010)

Legend:
T84 cells [1] = assay type: cell-based, human; conditions: 50 μM compound
[2] = target: guanylyl cyclase type C (GC-C) (Homo sapiens, UniProt P25092); assay: STa-induced activation of GC-C in T84 cells (cyclic GMP accumulation, ELISA); assay type: cell-based; set-up: endogenous in cells; host or cells: T84 cells
[3] = target: T1, membrane guanylyl cyclase (guanylyl cyclase type A, GC-A) (Homo sapiens, UniProt P16066); assay: ANP-induced cyclic GMP accumulation in BE-2(C) neuroblastoma cells
T1 sequence (P16066 33-1061): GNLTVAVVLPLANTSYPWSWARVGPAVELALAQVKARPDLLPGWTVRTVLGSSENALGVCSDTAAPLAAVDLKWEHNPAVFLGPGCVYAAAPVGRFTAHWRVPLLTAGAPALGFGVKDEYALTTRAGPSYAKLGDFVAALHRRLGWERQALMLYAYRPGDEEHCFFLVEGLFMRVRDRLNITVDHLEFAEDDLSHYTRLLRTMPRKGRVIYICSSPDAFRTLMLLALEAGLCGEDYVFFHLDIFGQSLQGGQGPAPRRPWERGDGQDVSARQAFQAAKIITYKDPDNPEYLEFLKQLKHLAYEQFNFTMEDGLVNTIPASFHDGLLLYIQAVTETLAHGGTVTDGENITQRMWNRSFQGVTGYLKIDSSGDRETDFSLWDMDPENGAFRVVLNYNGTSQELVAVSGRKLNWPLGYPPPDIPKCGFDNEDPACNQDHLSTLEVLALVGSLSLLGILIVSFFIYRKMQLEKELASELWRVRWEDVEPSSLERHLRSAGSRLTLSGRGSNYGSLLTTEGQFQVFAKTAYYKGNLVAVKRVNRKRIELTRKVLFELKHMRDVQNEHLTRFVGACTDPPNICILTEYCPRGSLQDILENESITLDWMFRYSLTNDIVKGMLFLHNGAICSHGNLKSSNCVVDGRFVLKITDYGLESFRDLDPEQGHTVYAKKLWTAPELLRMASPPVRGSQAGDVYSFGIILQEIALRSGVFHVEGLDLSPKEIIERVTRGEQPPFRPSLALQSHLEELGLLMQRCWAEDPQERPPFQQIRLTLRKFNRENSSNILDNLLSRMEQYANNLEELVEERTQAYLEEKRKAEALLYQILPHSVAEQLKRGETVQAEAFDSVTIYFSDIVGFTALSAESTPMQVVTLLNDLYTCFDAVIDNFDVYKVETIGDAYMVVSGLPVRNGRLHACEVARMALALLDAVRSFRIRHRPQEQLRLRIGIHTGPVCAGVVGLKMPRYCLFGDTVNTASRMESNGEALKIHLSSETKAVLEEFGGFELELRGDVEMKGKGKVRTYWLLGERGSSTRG

T84 cells [4] = assay: STa-induced chloride transport in T84 cells (SPQ); assay type: cell-based, human; conditions: increasing STa concentrations, 50 μM compound
Method: The chloride transport assay was performed by a method known in the art (West, M. R.; Molloy, C. R., A microplate assay measuring chloride ion channel activity. Anal Biochem 1996, 241, (1), 51-8). In some experiments, MQAE was used as a fluorescent sensor for chloride anions and in other experiments, SPQ was used to detect chloride efflux from T84 cells.
This experiment followed the protocol described in Examples 2 and 10. SPQ was used to detect chloride efflux from T84 cells.

rabbit intestinal loop = assay: Liquid secretion induced by STa in a rabbit intestinal loop model; assay type: in vivo
Method: The test was performed by the method known in the art (Alcantara, C. S.; Jin, X. H.; Brito, G. A.; Carneiro-Filho, B. A.; Barrett, L. J.; Carey, R. M.; Guerrant, R. L., Angiotensin II subtype 1 receptor blockade inhibits Clostridium difficile toxin A-induced intestinal secretion in a rabbit model. J Infect Dis 2005, 191, (12), 2090-6). Volume of liquid in the loop was divided by the length of the loop and the normalized value was used to assess liquid accumulation in the intestinal lumen.

[5] = target: anthrax edema toxin (protective antigen and edema factor) (Bacillus anthracis, UniProt P40136); assay type: cell-based
anthrax edema toxin (protective antigen and edema factor), sequence (P40136 whole entry, looked up): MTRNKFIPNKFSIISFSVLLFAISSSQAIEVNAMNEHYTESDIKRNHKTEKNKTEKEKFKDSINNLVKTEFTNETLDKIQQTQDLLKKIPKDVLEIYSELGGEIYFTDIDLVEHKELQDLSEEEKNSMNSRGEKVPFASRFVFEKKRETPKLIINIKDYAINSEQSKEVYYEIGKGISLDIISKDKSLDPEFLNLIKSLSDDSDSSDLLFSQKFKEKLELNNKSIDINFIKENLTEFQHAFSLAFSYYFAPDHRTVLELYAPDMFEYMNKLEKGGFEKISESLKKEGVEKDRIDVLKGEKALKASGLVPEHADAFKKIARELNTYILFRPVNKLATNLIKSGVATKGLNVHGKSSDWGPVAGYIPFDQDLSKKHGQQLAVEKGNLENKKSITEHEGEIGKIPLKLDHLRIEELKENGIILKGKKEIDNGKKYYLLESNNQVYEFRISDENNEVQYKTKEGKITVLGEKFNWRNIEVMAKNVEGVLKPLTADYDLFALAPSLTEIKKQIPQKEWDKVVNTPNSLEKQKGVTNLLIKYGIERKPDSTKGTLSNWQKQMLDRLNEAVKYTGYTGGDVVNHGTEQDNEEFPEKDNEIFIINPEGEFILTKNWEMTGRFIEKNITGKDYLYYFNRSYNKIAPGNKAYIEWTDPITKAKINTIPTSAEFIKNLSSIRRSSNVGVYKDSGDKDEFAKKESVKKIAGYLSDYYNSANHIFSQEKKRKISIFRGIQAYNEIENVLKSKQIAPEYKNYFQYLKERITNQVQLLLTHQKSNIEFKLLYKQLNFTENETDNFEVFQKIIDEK

[6] = target: pertussis adenylyl cyclase toxin (Bordetella pertussis, UniProt P0DKX7); assay: Cyclic AMP accumulation in T84 cells infected with pertussis adenylyl cyclase toxin; assay type: cell-based; conditions: 50 μM compound
pertussis adenylyl cyclase toxin, sequence (P0DKX7 whole entry, looked up): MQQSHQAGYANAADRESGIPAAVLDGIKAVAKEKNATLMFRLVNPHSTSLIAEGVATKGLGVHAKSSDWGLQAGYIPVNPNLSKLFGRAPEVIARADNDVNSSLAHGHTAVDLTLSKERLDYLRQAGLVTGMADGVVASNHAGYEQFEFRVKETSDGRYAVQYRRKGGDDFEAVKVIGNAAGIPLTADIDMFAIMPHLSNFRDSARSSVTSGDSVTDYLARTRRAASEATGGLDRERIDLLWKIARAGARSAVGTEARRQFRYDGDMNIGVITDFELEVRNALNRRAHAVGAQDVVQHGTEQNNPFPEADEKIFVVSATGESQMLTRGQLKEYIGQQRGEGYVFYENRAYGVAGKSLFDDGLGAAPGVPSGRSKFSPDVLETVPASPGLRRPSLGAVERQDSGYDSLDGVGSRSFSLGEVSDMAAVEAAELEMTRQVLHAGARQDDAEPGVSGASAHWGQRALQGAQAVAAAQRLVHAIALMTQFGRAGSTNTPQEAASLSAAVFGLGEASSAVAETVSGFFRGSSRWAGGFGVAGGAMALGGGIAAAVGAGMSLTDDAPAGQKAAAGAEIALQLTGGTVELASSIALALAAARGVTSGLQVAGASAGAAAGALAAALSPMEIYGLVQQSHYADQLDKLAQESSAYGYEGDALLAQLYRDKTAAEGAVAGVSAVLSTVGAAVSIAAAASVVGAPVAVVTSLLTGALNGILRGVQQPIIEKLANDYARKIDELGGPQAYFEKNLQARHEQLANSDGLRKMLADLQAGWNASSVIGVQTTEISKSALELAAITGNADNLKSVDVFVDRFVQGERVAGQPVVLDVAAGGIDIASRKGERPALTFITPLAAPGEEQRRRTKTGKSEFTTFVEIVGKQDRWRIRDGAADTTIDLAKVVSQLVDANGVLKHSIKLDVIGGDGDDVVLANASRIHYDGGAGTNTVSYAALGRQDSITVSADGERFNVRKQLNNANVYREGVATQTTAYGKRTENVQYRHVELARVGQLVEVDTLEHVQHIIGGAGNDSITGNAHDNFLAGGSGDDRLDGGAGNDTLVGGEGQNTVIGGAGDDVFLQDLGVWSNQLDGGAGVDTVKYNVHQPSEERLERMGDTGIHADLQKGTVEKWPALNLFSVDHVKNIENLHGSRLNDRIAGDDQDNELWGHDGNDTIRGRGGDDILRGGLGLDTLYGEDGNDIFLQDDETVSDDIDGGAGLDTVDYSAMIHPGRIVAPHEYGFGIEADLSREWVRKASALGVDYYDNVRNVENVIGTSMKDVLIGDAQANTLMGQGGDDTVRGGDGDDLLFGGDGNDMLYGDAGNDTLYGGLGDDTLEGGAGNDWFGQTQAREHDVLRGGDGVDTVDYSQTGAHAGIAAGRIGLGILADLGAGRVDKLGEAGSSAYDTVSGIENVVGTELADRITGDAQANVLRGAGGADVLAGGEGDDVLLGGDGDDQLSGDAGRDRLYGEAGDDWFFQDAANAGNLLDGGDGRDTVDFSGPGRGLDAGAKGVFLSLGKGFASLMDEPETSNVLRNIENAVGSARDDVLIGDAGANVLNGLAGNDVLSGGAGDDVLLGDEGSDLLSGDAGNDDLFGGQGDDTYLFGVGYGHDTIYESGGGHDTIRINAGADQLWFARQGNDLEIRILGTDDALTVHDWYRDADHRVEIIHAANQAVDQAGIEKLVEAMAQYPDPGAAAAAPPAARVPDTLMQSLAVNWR
Method: The assay was performed in T84 cells by the methods described in Example 2 and Ahuja, N.; Kumar, P.; Bhatnagar, R., The adenylate cyclase toxins. Crit Rev Microbiol 2004, 30, (3), 187-96, but the amount of cyclic AMP accumulated was assayed with a commercially available kit from Cayman Chemical Co.
Cells were treated with pertussis adenylyl cyclase toxin at 1 μg/ml in Dulbecco's minimal essential medium for 60 min in the presence of vehicle DMSO (0.1%) or 50 μM compound IIb for 60 min and then medium was aspirated and replaced with DPBS containing 1 mM IBMX and DMSO or compound IIb, respectively, for the vehicle and compound IIb-treated samples. After 10 min incubation, the amount of cyclic AMP was measured. […] N=3.

adenylyl cyclase = assay type: cell-based, human

guanylyl cyclase type C (GC-C), sequence (P25092 24-1073): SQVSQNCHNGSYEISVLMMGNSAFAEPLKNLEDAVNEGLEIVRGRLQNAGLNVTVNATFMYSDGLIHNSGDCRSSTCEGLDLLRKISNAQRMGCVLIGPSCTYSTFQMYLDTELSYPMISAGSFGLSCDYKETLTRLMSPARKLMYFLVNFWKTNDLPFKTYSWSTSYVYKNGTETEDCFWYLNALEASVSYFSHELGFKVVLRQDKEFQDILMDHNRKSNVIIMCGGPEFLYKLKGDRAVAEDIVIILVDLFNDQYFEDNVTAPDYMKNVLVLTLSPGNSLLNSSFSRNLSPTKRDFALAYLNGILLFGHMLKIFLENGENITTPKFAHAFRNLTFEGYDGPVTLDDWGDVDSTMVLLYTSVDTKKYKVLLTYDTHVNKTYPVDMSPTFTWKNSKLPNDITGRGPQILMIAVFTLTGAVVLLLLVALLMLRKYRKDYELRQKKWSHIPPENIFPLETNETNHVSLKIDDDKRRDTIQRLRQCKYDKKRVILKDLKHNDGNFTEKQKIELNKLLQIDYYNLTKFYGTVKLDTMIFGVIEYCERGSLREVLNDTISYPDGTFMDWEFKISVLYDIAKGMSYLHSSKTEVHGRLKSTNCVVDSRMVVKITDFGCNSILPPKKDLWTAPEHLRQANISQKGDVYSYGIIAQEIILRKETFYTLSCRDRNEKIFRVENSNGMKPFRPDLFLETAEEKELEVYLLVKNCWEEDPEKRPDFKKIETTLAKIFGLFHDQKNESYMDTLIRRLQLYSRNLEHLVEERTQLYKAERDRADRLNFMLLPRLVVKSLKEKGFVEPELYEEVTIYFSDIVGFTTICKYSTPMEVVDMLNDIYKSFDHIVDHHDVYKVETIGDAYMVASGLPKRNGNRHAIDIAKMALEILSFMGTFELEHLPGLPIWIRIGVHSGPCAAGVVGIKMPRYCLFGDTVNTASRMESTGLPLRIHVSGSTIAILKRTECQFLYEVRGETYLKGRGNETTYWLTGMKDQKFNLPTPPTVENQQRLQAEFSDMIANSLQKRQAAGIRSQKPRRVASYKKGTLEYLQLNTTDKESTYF

Cn1c2c(c(=O)n(C)c1=O)C(c1cccc(Br)c1)C1=C(N2)c2ccccc2C1=O (stereo not drawn) [compound IIb]
increase in chloride efflux induced by 8-bromo cyclic AMP or ionomycin (T84 cells [1]): not influenced | increase in chloride efflux induced by isoproterenol, cholera toxin and forskolin (T84 cells [1]): significantly suppressed | chloride anion efflux, increase in fluorescence of MQAE (T84 cells [1]; 50 μM forskolin, forskolin alone 2690, baseline 477): 428 relative units in 10 min | inhibition of STa-induced activation of GC-C (FIG. 2) [2]: inhibition | inhibition at 50 µM ([2]; 100 nM STa, 50 μM compound): 84.7% | level of cyclic GMP ([2]; 100 nM STa, 50 μM compound, vehicle 124±10, basal 6±2): 24±6 pmol/mg protein | IC50 ([2]; 100 nM STa, read-out: IC50, inhibition of cyclic GMP synthesis): 3.4 µM | STa concentration-dependent accumulation of cyclic GMP ([2]; increasing STa 1 nM to 5 μM, 50 μM compound): significantly suppressed | IC50 [3]: 8.4 µM | STa-induced increase in chloride efflux (T84 cells [4]): significantly suppressed | liquid accumulation (volume per loop length) (rabbit intestinal loop; rabbit loops injected with 100 nM STa and 50 μM compound, STa+vehicle 0.62±0.05, PBS 0.18±0.03): 0.15 ± 0.06 mL/cm | inhibition of STa-stimulated liquid accumulation (rabbit intestinal loop; rabbit loops, 100 nM STa, 50 μM compound): completely | cyclic AMP accumulation [5]: 62.1±6.3 pmol/mg protein | decrease of cyclic AMP accumulation [5]: 55.2% | cyclic AMP accumulation ([6]; toxin 1 μg/ml 60 min, vehicle 9.97±0.72): 4.06±0.44 nmol/mg protein | decrease of cyclic AMP accumulation ([6]; toxin 1 μg/ml): 59.2% | amount of cyclic AMP accumulated (adenylyl cyclase): 1.2±0.1 nmol/mg protein | inhibition of cholera toxin-induced cyclic AMP (adenylyl cyclase; T84 cells, cholera toxin 1 μg/ml, 50 μM compound): 84.6%
